Like-named read-outs stand apart in the source and are kept apart here.
Columns and labels:
MELANOMA B16-Fl cells = assay: cytostatic action on melanoma cells; type: cell-based; conditions: compounds added in vitro in different concentrations
Description: (§1) Cytostatic action was tested on cellular lines of Fibrosarcoma 3T3-B77 obtained by conversion of 3T3 Bald/C fibroblasts by Bratislava 77 strain RSV virus and on MELANOMA B16-Fl cells.
(§2) The influence of cellular proliferation induced by the addition in vitro of the compounds in different concentrations was evaluated.

growing Swiss mouse = assay: acute toxicity (LD50 and toxic symptomatology), intraperitoneal administration; type: in vivo; conditions: ip
Description: (§3) The compounds of the invention were tested to evaluate their antiinflammatory, analgesic, antipyretic, platelet aggregation inhibition and cytostatic pharmacological effects. At the same time acute toxicity tests were made in the mouse with evaluation of LD 50 and of the symptomatology resulting from the treatment.
(§4) LD 50 and toxic symptomatology resulting from the treatment were evaluated in the growing Swiss mouse by intraperitoneal administration of the different compounds. The period of observation was extended for 10 days after administration and the value of the lethal dose was calculated by graphic interpolation of the number of deaths.
(§5) In Table II are given acute toxicity data (LD50 calculated with the graphic method) obtained in the mouse after intraperitoneal administration of the various compounds and the symptomatological observations attributable to the treatment.

[1] = as above; type: in vivo; conditions: in vivo, mouse, ip, 10 days observation, graphic interpolation; for LD50 at 10 days: Swiss
Description: as §3, §4, §5

Fibrosarcoma 3T3-B77 = assay: cytostatic action on fibrosarcoma cell line; type: cell-based; conditions: compounds added in vitro in different concentrations
Description: as §1, §2

TXB2 = assay: generation of TXB2 on whole blood after stimulation with collagen; type: cell-based; conditions: collagen 1 μg/ml
Description: (§6) Inhibition of platelet aggregation was evaluated in vitro according to the Born method with various inducers (arachidonic acid, adrenalin, collagen) using as the substrate human plasma from healthy donors. For some new compounds the generation of thromboxane B2 and 6-keto-PGF according to the De Fryen method was evaluated. Platelet aggregation was studied in two successive periods: immediately after addition of the derivative and after 15 minutes of incubation at 37°C.
The results obtained on the generation of TXB2 and 6-Keto-PGF evaluated to determine preliminarily the level of interaction on the biochemical. mechanisms underlying increased platelet reactivity are given in Table X.

platelet aggregation = platelet aggregation in vitro according to Born, inducer arachidonic acid; type: cell-based, human; conditions: inducer 1 mM arachidonic acid
Description: as §6
On some of the compounds which are the object of the present invention differentiated independently of the magnitude of the antiinflamatory, analgesic and antipyretic effect, preliminary tests in vitro were performed under the experimental conditions set forth above for the purpose of evaluating their effect on platelet reactivity.

[2] = haematic and urine rates after oral treatment (HPLC); type: in vivo; conditions: rat, 50 mg/kg os
Description: To preliminarily complete the pharmacological profile of the new series of compounds which are the object of the present invention and making reference to compound 8 a pharmacological test was performed in the rat and a subacute toxicity test was performed in the same animal species. Determination was performed with HPLC of the content in biological liquids.

growing male Wistar rat [3] = assay: antipyretic action, beer yeast-induced hyperthermia; type: in vivo; conditions: one dosage per product, 5-100 mg/kg, see column 'Dosage mg/kg ip'
growing male Wistar rat [4] = assay: antiinflammatory action, carrageenin-induced paw edema; type: in vivo; conditions: one dosage per product, 5-100 mg/kg, see column 'Dosage mg/kg ip'
male Wistar rat = assay: analgesic action, Randall and Selitto method (carrageenin-inflamed paw); type: in vivo; conditions: one dosage per product, 5-100 mg/kg, see column 'Dosage mg/kg ip'

For `O=C(O)CCON=C1CCCC1` [compound 1], the “influence on cellular proliferation” value (MELANOMA B16-Fl cells) was “significant influence on cellular proliferation”, the Symptomatology (growing Swiss mouse) was “agitation” and the LD50 at 240 h [1] was 200 mg/kg. For the same compound, the “influence on cellular proliferation” value (Fibrosarcoma 3T3-B77) was “significant influence on cellular proliferation”.

In the case of `O=C(O)CCON=C1CCCCC1` [compound 2], the “influence on cellular proliferation” value (MELANOMA B16-Fl cells) is reported as “significant influence on cellular proliferation”, the Symptomatology (growing Swiss mouse) is reported as “agitation” and the LD50 at 240 h [1] is reported as 50 mg/kg. The “influence on cellular proliferation” value (Fibrosarcoma 3T3-B77) was “significant influence on cellular proliferation”.

For `CC(C)=NOCCC(=O)O` [compound 3], the Symptomatology (growing Swiss mouse) was “passivity” and the LD50 at 240 h [1] was 300 mg/kg.

With `CCCC(CCC)=NOCCC(=O)O` [compound 4] the Symptomatology (growing Swiss mouse) was “passivity” and the LD50 at 240 h [1] was 450 mg/kg.

For `CC(C)C(=NOCCC(=O)O)C(C)C` [compound 5], the Symptomatology (growing Swiss mouse) was “agitation” and the LD50 at 10 days [1] was 400 mg/kg.

In the case of `CC(=NOCCC(=O)O)c1ccccc1` [compound 6], the Symptomatology (growing Swiss mouse) is reported as “passivity” and the LD50 at 240 h [1] is reported as 600 mg/kg.

With `O=C(O)CCON=C(c1ccccc1)c1ccccc1` [compound 7] the Symptomatology (growing Swiss mouse) was “passivity” and the LD50 at 240 h [1] was 300 mg/kg.

In the case of `O=C(O)CCO/N=C/c1ccccc1` [compound 8], the “Generation of TXB2” value (TXB2; 5.10^-4 M, 5 min, control 41.2) is reported as 11.7 (41.2) μg/ml, the “Generation of TXB2” value (TXB2; 5.10^-4 M, 15 min, control 26.5) is reported as 8.6 (26.5) μg/ml and the “Generation of TXB2” value (TXB2; 5.10^-4 M, 30 min, control 36.5) is reported as 8.5 (36.5) μg/ml. For the same compound, the “Generation of TXB2” value (TXB2; 5.10^-4 M, 60 min, control 65.8) was 15.1 (65.8) μg/ml, the “Generation of TXB2” value (TXB2; 5.10^-5 M, 5 min, control 41.2) was 54.3 (41.2) μg/ml and the “Generation of TXB2” value (TXB2; 5.10^-5 M, 15 min, control 26.5) was 37.5 (26.5) μg/ml. The “Generation of TXB2” value (TXB2; 5.10^-5 M, 30 min, control 36.5) was 41.4 (36.5) μg/ml, the “Generation of TXB2” value (TXB2; 5.10^-5 M, 60 min, control 65.8) was 68 (65.8) μg/ml and the “influence on cellular proliferation” value (MELANOMA B16-Fl cells) was “significant influence on cellular proliferation”. For the same compound, the “Percentage response variation AM” value (platelet aggregation; 5.10^-4 M) was -32.3%, the “Percentage response variation Lagt” value (platelet aggregation; 5.10^-4 M) was “+114.3%” and the “Percentage response variation AM” value (platelet aggregation; 5.10^-5 M) was -1.5%. For the same compound, the “Percentage response variation Lagt” value (platelet aggregation; 5.10^-5 M) was “+10.7%”, the concentration at 1 h ([2]; plasma, 1 hour) was 180 µg/mL and the concentration at 2 h ([2]; plasma, 2 hours) was 145 µg/mL. It also gave a concentration at 3 h ([2]; plasma, 3 hours) of 142 µg/mL, a concentration at 4 h ([2]; plasma, 4 hours) of 141 µg/mL and a concentration at 6 h ([2]; plasma, 6 hours) of 140 µg/mL. It also gave a concentration at 24 h ([2]; plasma, read-out: Plasma) of 90 µg/mL, a concentration at 48 h ([2]; plasma, read-out: Plasma) of 53 µg/mL and a concentration at 8 h ([2]; urine, 8 hours) of 30 µg/mL. For the same compound, the concentration at 24 h ([2]; urine, read-out: Urine) was 80 µg/mL, the concentration at 48 h ([2]; urine, read-out: Urine) was 17 µg/mL and the Symptomatology (growing Swiss mouse) was “passivity”. For the same compound, the LD50 at 10 days [1] was 600 mg/kg and the “influence on cellular proliferation” value (Fibrosarcoma 3T3-B77) was “significant influence on cellular proliferation”.

In the case of `CC(=NOCCC(=O)O)c1ccc(Cl)cc1` [compound 11], the Symptomatology (growing Swiss mouse) is reported as “agitation” and the LD50 at 240 h [1] is reported as 250 mg/kg.

With `COc1ccc(C(C)=NOCCC(=O)O)cc1` [compound 12] the Symptomatology (growing Swiss mouse) was “passivity” and the LD50 at 240 h [1] was 850 mg/kg.

With `O=C(O)CCON=C1c2ccccc2-c2ccccc21` [compound 13] the “influence on cellular proliferation” value (MELANOMA B16-Fl cells) was “significant influence on cellular proliferation”, the Symptomatology (growing Swiss mouse) was “passivity” and the LD50 at 240 h [1] was 250 mg/kg. For the same compound, the “influence on cellular proliferation” value (Fibrosarcoma 3T3-B77) was “significant influence on cellular proliferation”.

With `O=C(O)CCON=Cc1ccc(Cl)cc1` [compound 14] the Symptomatology (growing Swiss mouse) was “passivity” and the LD50 at 240 h [1] was 350 mg/kg.

For `O=C(O)CCON=Cc1ccco1` [compound 15], the Symptomatology (growing Swiss mouse) was “negligible” and the LD50 at 240 h [1] was 1500 mg/kg.

With `COc1ccc(OC)c(C=NOCCC(=O)O)c1` [compound 16] the “Percentage response variation AM” value (platelet aggregation; 5.10^-4 M) was -13.3%, the “Percentage response variation Lagt” value (platelet aggregation; 5.10^-4 M) was “+28.0%” and the “Percentage response variation AM” value (platelet aggregation; 5.10^-5 M) was -16.1%. For the same compound, the “Percentage response variation Lagt” value (platelet aggregation; 5.10^-5 M) was -8.0%, the Symptomatology (growing Swiss mouse) was “passivity” and the LD50 at 240 h [1] was 600 mg/kg.

In the case of `O=C(O)CCON=Cc1ccccc1Cl` [compound 17], the “Percentage response variation AM” value (platelet aggregation; 5.10^-4 M) is reported as -79.8%, the “Percentage response variation Lagt” value (platelet aggregation; 5.10^-4 M) is reported as “+273.9%” and the “Percentage response variation AM” value (platelet aggregation; 5.10^-5 M) is reported as -33.3%. The “Percentage response variation Lagt” value (platelet aggregation; 5.10^-5 M) was “+60.0%”, the Symptomatology (growing Swiss mouse) was “passivity” and the LD50 at 240 h [1] was 400 mg/kg.

In the case of `O=C(O)CCON=Cc1cccc(Cl)c1` [compound 18], the Symptomatology (growing Swiss mouse) is reported as “passivity” and the LD50 at 240 h [1] is reported as 325 mg/kg.

In the case of `O=C(O)CCO/N=C/c1ccc2c(c1)OCO2` [compound 21], the Symptomatology (growing Swiss mouse) is reported as “passivity” and the LD50 at 240 h [1] is reported as 525 mg/kg.

In the case of `O=C(O)CCO/N=C/c1cccs1` [compound 22], the “Percentage response variation AM” value (platelet aggregation; 5.10^-4 M) is reported as “+80.5%”, the “Percentage response variation Lagt” value (platelet aggregation; 5.10^-4 M) is reported as “+276.0%” and the “Percentage response variation AM” value (platelet aggregation; 5.10^-5 M) is reported as “+38.3%”. For the same compound, the “Percentage response variation Lagt” value (platelet aggregation; 5.10^-5 M) was “+12.0%”, the Symptomatology (growing Swiss mouse) was “passivity” and the LD50 at 240 h [1] was 1800 mg/kg.

With `O=C(O)CCO/N=C\c1ccccc1` [compound 23] the “influence on cellular proliferation” value (MELANOMA B16-Fl cells) was “significant influence on cellular proliferation”, the Symptomatology (growing Swiss mouse) was “passivity” and the LD50 at 10 days [1] was 510 mg/kg. For the same compound, the “influence on cellular proliferation” value (Fibrosarcoma 3T3-B77) was “significant influence on cellular proliferation”.

With `CC(CO/N=C/c1ccccc1)C(=O)O` (stereo not drawn) [compound 24] the “Antipyretic action (maximum % response in first 4 hours)” value (growing male Wistar rat [3]) was 40%, the “influence on cellular proliferation” value (MELANOMA B16-Fl cells) was “significant influence on cellular proliferation” and the “Antiinflammatory action (maximum % response in first 4 hours)” value (growing male Wistar rat [4]) was 35%. For the same compound, the Symptomatology (growing Swiss mouse) was “passivity”, the LD50 at 240 h [1] was 750 mg/kg and the “Analgesic action (maximum % response in first 4 hours)” value (male Wistar rat) was 46%. The “influence on cellular proliferation” value (Fibrosarcoma 3T3-B77) was “significant influence on cellular proliferation”.

With `CCC(CO/N=C/c1ccccc1)C(=O)O` (stereo not drawn) [compound 25] the “Antipyretic action (maximum % response in first 4 hours)” value (growing male Wistar rat [3]) was 35%, the “influence on cellular proliferation” value (MELANOMA B16-Fl cells) was “significant influence on cellular proliferation” and the “Antiinflammatory action (maximum % response in first 4 hours)” value (growing male Wistar rat [4]) was 35%. The Symptomatology (growing Swiss mouse) was “passivity”, the LD50 at 240 h [1] was 800 mg/kg and the “Analgesic action (maximum % response in first 4 hours)” value (male Wistar rat) was 40%. The “influence on cellular proliferation” value (Fibrosarcoma 3T3-B77) was “significant influence on cellular proliferation”.
